Laboratory results reported in PubChem BioAssay AID1645848.
Values after ≈ are worked out from the molar mass of the structure shown.

Conditions: buffer; pH 7.4; 6.0 h; 150.0 µM

Row | solubility kinetic [µg/mL] | Compound
1 | < 1 | Cc1nc(NC(=O)C2CC(=O)N(c3n[nH]c4cc(Br)ccc34)C2)sc1C (configuration not stated)
2 | < 1 | Cc1ccc(S(=O)(=O)Nc2cnccc2C(=O)Nc2ccc(-c3nc4ccccc4[nH]3)cc2)cc1
3 | 30.2 (≈ 63.9 µM) | O=C(Nc1nc(-c2ccc(F)cc2)cs1)c1ccncc1NS(=O)(=O)c1ccc(F)cc1
4 | 9.57 (≈ 24.8 µM) | O=C(c1nc(-c2cccnc2)c2ccccn12)N1CCN(c2ncccn2)CC1
5 | < 1 | Cc1nnc(N2C(=O)c3oc4ccccc4c(=O)c3C2c2ccc(F)cc2)s1 (configuration not stated)
6 | 6.22 (≈ 15.7 µM) | CCc1nc2c(sc3nc4c(cc32)COC(C)(C)C4)c(=O)n1Cc1ccco1
7 | 44.8 (≈ 111 µM) | Cn1nnnc1Sc1ncnc2scc(-c3cccc(S(C)(=O)=O)c3)c12
8 | 0.184 (≈ 0.406 µM) | Cc1ccc(/C=C/c2nc3ccccc3n2S(=O)(=O)c2ccc(Br)cc2)cc1
9 | < 1 | Cc1cc(/C=C2/C(=O)Nc3ccccc32)cc(C)c1O
10 | 28.2 (≈ 97.3 µM) | O=C(Nc1nnc(-c2ccco2)o1)c1ccc(Cl)cc1
11 | 58.3 (≈ 124 µM) | COc1cccc(CNc2ccc(S(=O)(=O)Nc3ccc(N4CCNCC4)cc3)cc2)c1O
12 | 4.17 (≈ 9.32 µM) | Cc1ccc(-n2nc3c(=O)n(CCCC(=O)NCc4ccccc4F)nc(C)c3c2C)cc1
13 | > 54 | NC(=O)C1CCN(c2nc(-c3ccccc3Br)cs2)CC1
14 | 7.21 (≈ 18.2 µM) | Cc1cc(C)nc(NC(=S)N2CCN(c3nccc(C(F)(F)F)n3)CC2)c1
15 | > 62 | O=C(NC1CC1)c1nc(-c2cccnc2)c2ccccn12
16 | 7.72 (≈ 14.9 µM) | CCc1ccc(NC(=O)c2[nH]c(C)c(C(C)=O)c2C)cc1S(=O)(=O)Nc1ccc(Br)cc1
17 | 17.9 (≈ 47.3 µM) | CCc1ccc(OC(C)C(=O)N2CCC(c3nc4ccccc4o3)CC2)cc1 (configuration not stated)
18 | < 1 | Cc1ccccc1CSc1nc2ncc(Br)cc2[nH]1
19 | 25.4 (≈ 113 µM) | CNc1ncc(-c2cccc3ccccc23)o1
20 | 5.04 (≈ 19.8 µM) | S=c1[nH]c2ccccc2n1CCc1ccccc1
21 | < 1 | CCCCCn1cc2c(c1-c1ccc(Br)cc1)c(=O)n(C)c(=O)n2C

Row | solubility kinetic [µg/mL] | Compound
22 | 2.19 (≈ 5.17 µM) | COC(=O)c1ccnc(NC(=S)N2CCN(c3cccc(C(F)(F)F)c3)CC2)c1
23 | 1.53 (≈ 2.92 µM) | COc1ccc(C2Nc3ccccc3C(=O)N2Cc2ccco2)cc1COc1c(C)cc(NC(C)=O)cc1C (configuration not stated)
24 | < 1 | CC(C)(C)c1ccc(OCc2nn3c(-c4ccncc4)nnc3s2)cc1
25 | < 1 | N#C/C(=C\c1ccc(Sc2ccc(Cl)cc2)o1)c1nc2ccccc2[nH]1
26 | > 48 | Clc1ccc2ncc(-c3cccc(NC4CCNCC4)n3)n2c1
27 | 11.7 (≈ 26 µM) | Cc1ccccc1S(=O)(=O)N1CCCC(CCC(=O)NCCN(C)C2CCCCC2)C1 (configuration not stated)
28 | 13.6 (≈ 60.9 µM) | CCCCOc1ccc(CC(=O)NO)cc1
29 | < 1 | CNc1oc(-c2cccc(-c3ccccc3)c2)nc1C#N
30 | > 55 | CC/C=C\C/C=C\C/C=C\C/C=C\C/C=C\C/C=C\CCC(=O)NCCO
31 | > 59 | Cc1cnc(-c2ccccc2C2COC2)nc1NCc1ccc(-n2ccnn2)cc1
32 | < 1 | c1ccc2c(Nc3ccon3)nc(-c3ccncc3)nc2c1
33 | 1.12 (≈ 3.44 µM) | Brc1ccc(-c2csc(N3CCOCC3)n2)cc1
34 | < 1 | Cc1ccc(S(=O)(=O)Nc2cc(Cl)ccc2C(=O)Nc2nc(-c3ccccc3)cs2)cc1
35 | > 69 | CCn1nc(C2CCN(C(=O)CCO)CC2)nc1-c1cnc(N)c(-c2nnc(C(C)(C)C)o2)n1
36 | 5.75 (≈ 14.3 µM) | COc1ncccc1-c1cc2[nH]ccc2c(C(=O)NCc2c(C)cc(C)[nH]c2=O)n1
37 | 0.999 (≈ 4.21 µM) | O=C1Nc2ccccc2/C1=C\c1ccc(O)cc1
38 | 4.04 (≈ 10.9 µM) | Cc1cc(C)nc(NC(=S)N2CCN(c3cccc([N+](=O)[O-])c3)CC2)c1
39 | 19.5 (≈ 54.1 µM) | O=C(Nc1ccc(S(=O)(=O)Nc2nccs2)cc1)c1ccncc1
40 | 40 (≈ 120 µM) | O=C(NC1CCCc2c1cnn2-c1cccc(O)c1)c1ccccn1 (configuration not stated)
41 | 16.5 (≈ 41.2 µM) | COc1cc(-c2ccnc3c2c(C)nn3-c2cccc(C(F)(F)F)c2)ccc1O
42 | 2.27 (≈ 5.87 µM) | COC(=O)CNC(=O)c1nc(-c2ccc([S+](C)(=O)[O-])cc2)c2ccccn12
